In patent US20250382344A1, “Soluble GLP1/GIP/NPY2 Receptor Triple Agonists” (Boehringer Ingelheim International GmH, priority 2024, published 2025):
Read-outs that look alike come from different tables or passages of the source.

Columns and labels:
hGLP1R = target: T1, hGLP1R (Homo sapiens, UniProt P43220); test: hGLP1R CreLuc assay in 0.5% and 100% plasma (HEK-293 CRE-luciferase reporter cells); format: cell-based; settings: HEK-293 reporter cells
T1 construct: expressed in transfected cells; host or cells: HEK-293 CRE-luciferase reporter cells
T1 sequence (P43220 24-463): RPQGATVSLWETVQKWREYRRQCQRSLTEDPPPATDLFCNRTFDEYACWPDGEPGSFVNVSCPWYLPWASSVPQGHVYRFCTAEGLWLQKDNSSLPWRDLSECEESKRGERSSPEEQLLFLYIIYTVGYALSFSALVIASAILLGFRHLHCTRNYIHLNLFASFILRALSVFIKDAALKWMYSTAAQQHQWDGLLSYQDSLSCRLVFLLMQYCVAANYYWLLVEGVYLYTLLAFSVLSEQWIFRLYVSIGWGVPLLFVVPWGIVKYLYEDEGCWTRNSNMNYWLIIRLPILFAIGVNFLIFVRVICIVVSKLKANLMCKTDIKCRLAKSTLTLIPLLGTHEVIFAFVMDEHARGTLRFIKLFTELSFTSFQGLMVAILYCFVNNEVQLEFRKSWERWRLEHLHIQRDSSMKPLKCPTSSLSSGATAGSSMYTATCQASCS

hGIPR = target: T2, hGIPR (Homo sapiens, UniProt P48546); test: hGIPR CreLuc assay in 0.5% and 100% plasma (CHO CRE-luciferase reporter cells); format: cell-based
T2 construct: expressed in transfected cells; host or cells: CHO CRE-luciferase reporter cells
T2 sequence (P48546 22-466): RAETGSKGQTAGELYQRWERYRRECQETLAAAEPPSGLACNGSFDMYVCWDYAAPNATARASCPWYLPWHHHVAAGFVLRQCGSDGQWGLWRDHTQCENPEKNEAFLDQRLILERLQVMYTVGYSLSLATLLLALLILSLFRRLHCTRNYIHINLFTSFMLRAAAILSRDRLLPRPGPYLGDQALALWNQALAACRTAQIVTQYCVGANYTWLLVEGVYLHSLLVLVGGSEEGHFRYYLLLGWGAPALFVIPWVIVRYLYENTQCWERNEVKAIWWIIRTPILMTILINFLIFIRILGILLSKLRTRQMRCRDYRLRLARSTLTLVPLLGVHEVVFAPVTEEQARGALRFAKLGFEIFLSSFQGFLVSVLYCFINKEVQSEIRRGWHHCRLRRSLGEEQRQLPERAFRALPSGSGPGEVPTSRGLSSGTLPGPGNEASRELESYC

[1] = Solubility in 0.1 M phosphate buffer at pH 7; format: physicochemical; settings: 0.1 M phosphate buffer at pH 7, 10 mg/mL final peptide concentration, shaking 2 hours at room temperature, peptides as TFA-salts; measured sample pH 6.5-7.0
[2] = 0.5% human plasma, read-out: hGLP1R 0.5% hP
[3] = 0.5% human plasma, read-out: hGIPR 0.5% hP

| SMILES | EC50 (hGLP1R; [2]) | EC50 (hGLP1R; 100% human plasma, read-out: hGLP1R 100% hP) | EC50 (hGIPR; [3]) | EC50 (hGIPR; 100% human plasma, read-out: hGIPR 100% hP) | solubility at 2 h [1] |
| --- | --- | --- | --- | --- | --- |
| CC[C@H](C)[C@H](NC(=O)[C@H](CC(C)C)NC(=O)[C@H](Cc1c[nH]cn1)NC(=O)[C@H](CCCNC(=N)N)NC(=O)[C@@H](NC(=O)[C@H](Cc1ccccc1)NC(=O)[C@H](C)NC(=O)C(C)(C)NC(=O)[C@H](CCC(N)=O)NC(=O)[C@H](C)NC(=O)[C@H](CCC(N)=O)NC(=O)[C@H](CCCCN)NC(=O)[C@H](CCC(=O)O)NC(=O)[C@H](CC(C)C)NC(=O)C(C)(C)NC(=O)[C@@H](NC(=O)[C@H](CO)NC(=O)[C@H](Cc1ccc(O)cc1)NC(=O)[C@H](CC(=O)O)NC(=O)[C@H](CO)NC(=O)[C@@H](NC(=O)[C@H](Cc1ccccc1)NC(=O)[C@@H](NC(=O)CNC(=O)[C@H](CCC(=O)O)NC(=O)C(C)(C)NC(=O)[C@@H](N)Cc1ccc(O)cc1)[C@@H](C)O)[C@@H](C)O)[C@@H](C)CC)C(C)C)C(=O)N[C@@H](CC(N)=O)C(=O)N[C@@H](CCCCNC(=O)[C@@H](N)CCCCNC(=O)CC[C@H](NC(=O)CC[C@H](NC(=O)CC[C@H](NC(=O)CC[C@H](NC(=O)CC[C@H](NC(=O)CC[C@H](NC(=O)CCCCCCCCCCCCCCCCC(=O)O)C(=O)O)C(=O)O)C(=O)O)C(=O)O)C(=O)O)C(=O)O)C(=O)NC(C)(C)C(=O)N[C@H](C(=O)N[C@@H](CCCNC(=N)N)C(=O)N[C@@H](CCC(N)=O)C(=O)N(C)[C@@H](CCCNC(=N)N)C(=O)N[C@@H](Cc1ccc(O)cc1)C(N)=O)[C@@H](C)O [Compound 43, Y-Aib-E-G-T-F-T-S-D-Y-S-I-Aib-L-E-K-Q-A-Q-Aib-A-F-V-R-H-L-I-N-K(1,3)-Aib-T-R-Q-NMeR-Y-NH2.C18DA-gGlu-gGlu-gGlu-gGlu-gGlu-gGlu-eLys(1,2)] | 0.6 nM | 3 nM | 0.1 nM | 2.8 nM | 4300 µg/mL |
| CC[C@H](C)[C@H](NC(=O)[C@H](CC(C)C)NC(=O)[C@H](Cc1c[nH]cn1)NC(=O)[C@H](CCCNC(=N)N)NC(=O)[C@@H](NC(=O)[C@H](Cc1ccccc1)NC(=O)[C@H](C)NC(=O)C(C)(C)NC(=O)[C@H](CCC(N)=O)NC(=O)[C@H](C)NC(=O)[C@H](CCC(N)=O)NC(=O)[C@H](CCC(=O)O)NC(=O)[C@H](CCC(=O)O)NC(=O)[C@H](CC(C)C)NC(=O)C(C)(C)NC(=O)[C@@H](NC(=O)[C@H](CO)NC(=O)[C@H](Cc1ccc(O)cc1)NC(=O)[C@H](CC(=O)O)NC(=O)[C@H](CO)NC(=O)[C@@H](NC(=O)[C@H](Cc1ccccc1)NC(=O)[C@@H](NC(=O)CNC(=O)[C@H](CCC(=O)O)NC(=O)C(C)(C)NC(=O)[C@@H](N)Cc1ccc(O)cc1)[C@@H](C)O)[C@@H](C)O)[C@@H](C)CC)C(C)C)C(=O)N[C@@H](CC(N)=O)C(=O)N[C@@H](CCCCNC(=O)[C@@H](N)CCCCNC(=O)CC[C@H](NC(=O)CC[C@H](NC(=O)CC[C@H](NC(=O)CC[C@H](NC(=O)CC[C@H](NC(=O)CCCCCCCCCCCCCCCCC(=O)O)C(=O)O)C(=O)O)C(=O)O)C(=O)O)C(=O)O)C(=O)NC(C)(C)C(=O)N[C@H](C(=O)N[C@@H](CCCNC(=N)N)C(=O)N[C@@H](CCC(N)=O)C(=O)N[C@@H](CCCNC(=N)N)C(=O)N[C@@H](Cc1ccc(O)cc1)C(N)=O)[C@@H](C)O [Compound 48, Y-Aib-E-G-T-F-T-S-D-Y-S-I-Aib-L-E-E-Q-A-Q-Aib-A-F-V-R-H-L-I-N-K(1,3)-Aib-T-R-Q-R-Y-NH2.C18DA-gGlu-gGlu-gGlu-gGlu-gGlu-eLys(1,2)] | 0.5 nM | – | 0.1 nM | – | 7700 µg/mL |
| CC[C@H](C)[C@H](NC(=O)[C@H](CC(C)C)NC(=O)[C@H](Cc1c[nH]cn1)NC(=O)[C@H](CCCNC(=N)N)NC(=O)[C@@H](NC(=O)[C@H](Cc1ccccc1)NC(=O)[C@H](C)NC(=O)C(C)(C)NC(=O)[C@H](CCC(N)=O)NC(=O)[C@H](C)NC(=O)[C@H](CCC(N)=O)NC(=O)[C@H](C)NC(=O)[C@H](CC(=O)O)NC(=O)[C@H](CC(C)C)NC(=O)C(C)(C)NC(=O)[C@@H](NC(=O)[C@H](CO)NC(=O)[C@H](Cc1ccc(O)cc1)NC(=O)[C@H](CC(=O)O)NC(=O)[C@H](CO)NC(=O)[C@@H](NC(=O)[C@H](Cc1ccccc1)NC(=O)[C@@H](NC(=O)CNC(=O)[C@H](CCC(=O)O)NC(=O)C(C)(C)NC(=O)[C@@H](N)Cc1ccc(O)cc1)[C@@H](C)O)[C@@H](C)O)[C@@H](C)CC)C(C)C)C(=O)N[C@@H](CC(N)=O)C(=O)N[C@@H](CCCCNC(=O)[C@@H](N)CCCCNC(=O)CC[C@H](NC(=O)CC[C@H](NC(=O)CC[C@H](NC(=O)CC[C@H](NC(=O)CC[C@H](NC(=O)CC[C@H](NC(=O)CCCCCCCCCCCCCCCCC(=O)O)C(=O)O)C(=O)O)C(=O)O)C(=O)O)C(=O)O)C(=O)O)C(=O)NC(C)(C)C(=O)N[C@H](C(=O)N[C@@H](CCCNC(=N)N)C(=O)N[C@@H](CCC(N)=O)C(=O)N[C@@H](CCCNC(=N)N)C(=O)N[C@@H](Cc1ccc(O)cc1)C(N)=O)[C@@H](C)O [Compound 55, Y-Aib-E-G-T-F-T-S-D-Y-S-I-Aib-L-D-A-Q-A-Q-Aib-A-F-V-R-H-L-I-N-K(1,3)-Aib-T-R-Q-R-Y-NH2.C18DA-gGlu-gGlu-gGlu-gGlu-gGlu-gGlu-eLys(1,2)] | 0.4 nM | – | 0.4 nM | – | 8800 µg/mL |

Now those with a lower EC50 (hGLP1R; [2]), led by results:

| EC50 (hGLP1R; [2]) | EC50 (hGLP1R; 100% human plasma, read-out: hGLP1R 100% hP) | EC50 (hGIPR; [3]) | EC50 (hGIPR; 100% human plasma, read-out: hGIPR 100% hP) | solubility at 2 h [1] | SMILES |
| --- | --- | --- | --- | --- | --- |
| 0.2 nM | – | 0.1 nM | – | 9800 µg/mL | CC[C@H](C)[C@H](NC(=O)[C@H](CC(C)C)NC(=O)[C@H](Cc1c[nH]cn1)NC(=O)[C@H](CCCNC(=N)N)NC(=O)[C@@H](NC(=O)[C@H](Cc1ccccc1)NC(=O)[C@H](C)NC(=O)C(C)(C)NC(=O)[C@H](CCC(N)=O)NC(=O)[C@H](C)NC(=O)[C@H](CCC(N)=O)NC(=O)[C@H](CCCCN)NC(=O)[C@H](CCC(=O)O)NC(=O)[C@H](CC(C)C)NC(=O)C(C)(C)NC(=O)[C@@H](NC(=O)[C@H](CO)NC(=O)[C@H](Cc1ccc(O)cc1)NC(=O)[C@H](CC(=O)O)NC(=O)[C@H](CO)NC(=O)[C@@H](NC(=O)[C@H](Cc1ccccc1)NC(=O)[C@@H](NC(=O)CNC(=O)[C@H](CCC(=O)O)NC(=O)C(C)(C)NC(=O)[C@@H](N)Cc1ccc(O)cc1)[C@@H](C)O)[C@@H](C)O)[C@@H](C)CC)C(C)C)C(=O)N[C@@H](CC(N)=O)C(=O)N[C@@H](CCCCNC(=O)CCCCCNC(=O)CCCCCNC(=O)CC[C@H](NC(=O)CC[C@H](NC(=O)CC[C@H](NC(=O)CC[C@H](NC(=O)CC[C@H](NC(=O)CCCCCCCCCCCCCCCCC(=O)O)C(=O)O)C(=O)O)C(=O)O)C(=O)O)C(=O)O)C(=O)NC(C)(C)C(=O)N[C@H](C(=O)N[C@@H](CCCNC(=N)N)C(=O)N[C@@H](CCC(N)=O)C(=O)N[C@@H](CCCNC(=N)N)C(=O)N[C@@H](Cc1ccc(O)cc1)C(N)=O)[C@@H](C)O [Compound 44, Y-Aib-E-G-T-F-T-S-D-Y-S-I-Aib-L-E-K-Q-A-Q-Aib-A-F-V-R-H-L-I-N-K(1,3)-Aib-T-R-Q-R-Y-NH2.C18DA-gGlu-gGlu-gGlu-gGlu-gGlu-AHX-AHX(1,2)] |
| 0.3 nM | – | 0.1 nM | – | 10000 µg/mL | CC[C@H](C)[C@H](NC(=O)[C@H](CC(C)C)NC(=O)[C@H](Cc1c[nH]cn1)NC(=O)[C@H](CCCNC(=N)N)NC(=O)[C@@H](NC(=O)[C@H](Cc1ccccc1)NC(=O)[C@H](C)NC(=O)C(C)(C)NC(=O)[C@H](CCC(N)=O)NC(=O)[C@H](C)NC(=O)[C@H](CCC(N)=O)NC(=O)[C@H](CCCCN)NC(=O)[C@H](CCC(=O)O)NC(=O)[C@H](CC(C)C)NC(=O)[C@](C)(CC(C)C)NC(=O)[C@@H](NC(=O)[C@H](CO)NC(=O)[C@H](Cc1ccc(O)cc1)NC(=O)[C@H](CC(=O)O)NC(=O)[C@H](CO)NC(=O)[C@@H](NC(=O)[C@H](Cc1ccccc1)NC(=O)[C@@H](NC(=O)CNC(=O)[C@H](CCC(=O)O)NC(=O)C(C)(C)NC(=O)[C@@H](N)Cc1ccc(O)cc1)[C@@H](C)O)[C@@H](C)O)[C@@H](C)CC)C(C)C)C(=O)N[C@@H](CC(N)=O)C(=O)N[C@@H](CCCCNC(=O)CC[C@H](NC(=O)CC[C@H](NC(=O)CC[C@H](NC(=O)CC[C@H](NC(=O)CC[C@H](NC(=O)CC[C@H](NC(=O)CCCCCCCCCCCCCCCCCCC(=O)O)C(=O)O)C(=O)O)C(=O)O)C(=O)O)C(=O)O)C(=O)O)C(=O)NC(C)(C)C(=O)N[C@H](C(=O)N[C@@H](CCCNC(=N)N)C(=O)N[C@@H](CCC(N)=O)C(=O)N[C@@H](CCCNC(=N)N)C(=O)N[C@@H](Cc1ccc(O)cc1)C(N)=O)[C@@H](C)O [Compound 49, Y-Aib-E-G-T-F-T-S-D-Y-S-I-aMeL-L-E-K-Q-A-Q-Aib-A-F-V-R-H-L-I-N-K(1,3)-Aib-T-R-Q-R-Y-NH2.C20DA-gGlu-gGlu-gGlu-gGlu-gGlu-gGlu(1,2)] |
